Results as given in PubChem BioAssay (NCI).
Where “and” joins values, the source holds several entries; their conditions need not be identical. Equal values may be shown once.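 Protocol summary: plate cells (96-well), add compound at 5 concentrations, incubate 48 h, interpolate endpoints linearly. GI50: concentration for 50% inhibition of growth. TGI is the concentration that stops growth completely.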

Tests used:
Assay in all cases: inhibition of tumour cell growth, NCI panel, 48 h
NCI/ADR-RES ovarian = system: NCI/ADR-RES ovarian
IGROV1 ovarian = system: IGROV1 ovarian
U251 CNS = system: U251 CNS
A498 renal = system: A498 renal
SK-MEL-2 melanoma = system: SK-MEL-2 melanoma
HS 578T breast = system: HS 578T breast
MOLT-4 leukemia = system: MOLT-4 leukemia
M14 melanoma = system: M14 melanoma
NCI-H23 lung = system: NCI-H23 lung
NCI-H522 lung = system: NCI-H522 lung

CC(C)(Oc1ccc(-c2cccc3ccccc23)cc1)C(=O)O
TGI (NCI/ADR-RES ovarian): > 100000 nM | TGI (IGROV1 ovarian): > 100000 nM | TGI (U251 CNS): > 100000 nM | TGI (A498 renal): > 100000 nM | TGI (SK-MEL-2 melanoma): > 100000 nM | TGI (HS 578T breast): > 100000 nM | TGI (MOLT-4 leukemia): > 100000 nM | TGI (M14 melanoma): > 100000 nM | TGI (NCI-H23 lung): > 100000 nM | TGI (NCI-H522 lung): > 100000 nM

CCN(CC)c1ccc(/C=N/NC(=O)Cc2ccc(Nc3ccnc(C(F)(F)F)c3)cc2)c(O)c1
GI50 (NCI/ADR-RES ovarian): 1190 nM | TGI (NCI/ADR-RES ovarian): > 100000 nM | GI50 (IGROV1 ovarian): 472 nM | TGI (IGROV1 ovarian): > 22000 nM | GI50 (U251 CNS): 586 nM | TGI (U251 CNS): > 100000 nM | GI50 (A498 renal): 2640 nM | TGI (A498 renal): > 89500 nM | GI50 (SK-MEL-2 melanoma): 4520 nM | TGI (SK-MEL-2 melanoma): > 100000 nM | GI50 (HS 578T breast): 1950 nM | TGI (HS 578T breast): > 48900 nM | GI50 (MOLT-4 leukemia): 370 nM | TGI (MOLT-4 leukemia): > 100000 nM | GI50 (M14 melanoma): 637 nM | TGI (M14 melanoma): 5930 nM | GI50 (NCI-H23 lung): 1340 nM | TGI (NCI-H23 lung): > 100000 nM | GI50 (NCI-H522 lung): 1270 nM | TGI (NCI-H522 lung): > 100000 nM

O=c1[nH]c2cc(Cl)ccc2nc1/C(=N\Nc1ccccc1)C(O)c1ccc2c(c1)OCO2 (centres undefined)
TGI (NCI/ADR-RES ovarian): > 100000 nM | TGI (IGROV1 ovarian): > 100000 nM | TGI (U251 CNS): > 100000 nM | TGI (A498 renal): > 100000 nM | TGI (SK-MEL-2 melanoma): > 100000 nM | TGI (HS 578T breast): > 100000 nM | TGI (MOLT-4 leukemia): > 100000 nM | TGI (M14 melanoma): > 100000 nM | TGI (NCI-H23 lung): > 100000 nM | TGI (NCI-H522 lung): > 100000 nM

NNc1c(C(N)=O)c2c(N)ncnc2n1C1OC(CO)C(O)C1O (centres undefined)
GI50 (NCI/ADR-RES ovarian): 17.9 nM and 37.4 nM | TGI (NCI/ADR-RES ovarian): 289 nM and 754 nM | GI50 (IGROV1 ovarian): 27.6 nM and 47.6 nM | TGI (IGROV1 ovarian): 1120 nM and 3540 nM | GI50 (U251 CNS): 23 nM and 63.5 nM | TGI (U251 CNS): 12900 nM and > 100000 nM | GI50 (A498 renal): 44.5 nM and 161 nM | TGI (A498 renal): 485 nM and 1260 nM | GI50 (SK-MEL-2 melanoma): 27.3 nM and 25.6 nM | TGI (SK-MEL-2 melanoma): 94.6 nM and 307 nM | GI50 (HS 578T breast): 56 nM and 107 nM | TGI (HS 578T breast): 826 nM and 2380 nM | GI50 (MOLT-4 leukemia): 23.2 nM and 96.4 nM | TGI (MOLT-4 leukemia): 103 nM and 495 nM | GI50 (M14 melanoma): < 12.7 nM and 18.8 nM | TGI (M14 melanoma): 49.8 nM and 162 nM | GI50 (NCI-H23 lung): 26.8 nM and 50.7 nM | TGI (NCI-H23 lung): 266 nM and 319 nM | GI50 (NCI-H522 lung): 32.8 nM and 152 nM

Cc1cc(N2CCC(N3CCCC3)CC2)nc(/N=C(\N)Nc2ccc(Cl)c(Cl)c2)n1
GI50 (NCI/ADR-RES ovarian): 2580 nM | TGI (NCI/ADR-RES ovarian): 7660 nM | GI50 (IGROV1 ovarian): 2140 nM | TGI (IGROV1 ovarian): 5110 nM | GI50 (U251 CNS): 1790 nM | TGI (U251 CNS): 3350 nM | GI50 (A498 renal): 1940 nM | TGI (A498 renal): 3940 nM | GI50 (SK-MEL-2 melanoma): 2110 nM | TGI (SK-MEL-2 melanoma): 3850 nM | GI50 (HS 578T breast): 1910 nM | TGI (HS 578T breast): 5060 nM | GI50 (MOLT-4 leukemia): 3320 nM | TGI (MOLT-4 leukemia): > 100000 nM | GI50 (M14 melanoma): 1810 nM | TGI (M14 melanoma): 3670 nM | GI50 (NCI-H23 lung): 2120 nM | TGI (NCI-H23 lung): 6610 nM | GI50 (NCI-H522 lung): 1520 nM | TGI (NCI-H522 lung): 3320 nM
